We go through 14 compounds from US12331026B2 (NiKang Therapeutics, Inc., priority 2022, dated 2025).

The target of the assay is T1, CDK2 (Homo sapiens, UniProt P24941).
T1 construct: endogenous in cells; host or cells: OVCAR3 cells
Description: Phospho-RB measurement in OVCAR3 cells (HTRF phospho-RB S807/811). In kind it is cell-based. The conditions noted are these: phosphorylation of RB protein at S807/811, HTRF, 24 h compound treatment, 0.3 to 10,000 nM, read-out: pRb (uM). In outline:
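IC50 values come from four-parameter logistic fits of the DMSO-normalised 665/620 nm TR-FRET ratio for phospho-RB (S807/811). Antibody detection ran 4 h at room temperature.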
On the technique in general: In TR-FRET formats the signal depends on donor and acceptor labels being close together.

For `O=S1(=O)CC2(CC(Nc3nccc(-c4sc(N5C6CCC5CC(F)(F)C6)nc4-c4cccc(NS(=O)(=O)c5c(F)cccc5F)c4F)n3)C2)C1` [Example 12, N-(3-(2-(3,3-difluoro-8-azabicyclo[3.2.1]octan-8-yl)-5-(2-((2,2-dioxido-2-thiaspiro[3.3]heptan-6-yl)amino)pyrimidin-4-yl)thiazol-4-yl)-2-fluorophenyl)-2,6-difluorobenzenesulfonamide], the IC50 was 0.068 µM.
Then `O=S1(=O)CC2(CC(Nc3nccc(-c4sc(C5(C(F)(F)F)CCC5)nc4-c4cccc(NS(=O)(=O)c5c(F)cccc5C(F)(F)F)c4F)n3)C2)C1` [Example 84, N-(3-(5-(2-((2,2-dioxido-2-thiaspiro[3.3]heptan-6-yl)amino)-pyrimidin-4-yl)-2-(1-(trifluoromethyl)cyclobutyl)thiazol-4-yl)-2-fluorophenyl)-2-fluoro-6-(trifluoromethyl)benzenesulfonamide], with 0.03 µM; and `CC1CCC(C)N1c1nc(-c2cccc(NS(=O)(=O)c3c(F)cccc3F)c2F)c(-c2ccnc(NC3CC4(C3)CS(=O)(=O)C4)n2)s1` (centres unmarked) [Example 65, N-(3-(2-(2,5-dimethylpyrrolidin-1-yl)-5-(2-((2,2-dioxido-2-thiaspiro[3.3]heptan-6-yl)amino)pyrimidin-4-yl)thiazol-4-yl)-2-fluorophenyl)-2,6-difluorobenzenesulfonamide], with 0.39 µM; and `O=S1(=O)CC2(CC(Nc3nccc(-c4sc(C56CC(C5)C6)nc4-c4cccc(NS(=O)(=O)c5c(Cl)cccc5Cl)c4F)n3)C2)C1` [Example 31, N-(3-(2-(bicyclo[1.1.1]pentan-1-yl)-5-(2-((2,2-dioxido-2-thiaspiro[3.3]heptan-6-yl)amino)pyrimidin-4-yl)thiazol-4-yl)-2-fluorophenyl)-2,6-dichlorobenzenesulfonamide], with 0.07 µM.
Consider `CS(=O)(=O)[C@H]1CC[C@H](Nc2nccc(-c3sc(C45CC(C(F)F)(C4)C5)nc3-c3cccc(NS(=O)(=O)c4c(F)cccc4C(F)(F)F)c3F)n2)CC1` [Example 134, N-(3-(2-(3-(difluoromethyl)bicyclo[1.1.1]pentan-1-yl)-5-(2-(((1r,4r)-4-(methylsulfonyl)cyclohexyl)amino)pyrimidin-4-yl)thiazol-4-yl)-2-fluorophenyl)-2-fluoro-6-(trifluoromethyl)benzenesulfonamide], for which the IC50 is 0.08 µM.
As to `O=S1(=O)CC2(CC(Nc3nccc(-c4sc(N5CC6CCC5CC6)nc4-c4cccc(NS(=O)(=O)c5c(F)cccc5F)c4F)n3)C2)C1` [Example 18, N-(3-(2-(2-azabicyclo[2.2.2]octan-2-yl)-5-(2-((2,2-dioxido-2-thiaspiro[3.3]heptan-6-yl)amino)pyrimidin-4-yl)thiazol-4-yl)-2-fluorophenyl)-2,6-difluorobenzenesulfonamide], the IC50 came to 0.079 µM.
As for `C[C@@H]1CN(C2CC(F)(F)C2)C[C@@H](C)N1c1nc(-c2cccc(NS(=O)(=O)c3c(F)cccc3F)c2F)c(-c2ccnc(NC3CC4(C3)CS(=O)(=O)C4)n2)s1` [Example 61, N-(3-(2-((2R,6R)-4-(3,3-difluorocyclobutyl)-2,6-dimethylpiperazin-1-yl)-5-(2-((2,2-dioxido-2-thiaspiro[3.3]heptan-6-yl)amino)-pyrimidin-4-yl)thiazol-4-yl)-2-fluorophenyl)-2,6-difluoro-benzenesulfonamide], the IC50 was 0.34 µM.
On to `O=S1(=O)C[C@@H]2[C@H](C1)[C@H]2Nc1nccc(-c2sc(N3C4CCC3CN(C3CC(F)(F)C3)C4)nc2-c2cccc(NS(=O)(=O)c3c(F)cccc3F)c2F)n1` [Example 107, N-(3-(2-(3-(3,3-difluorocyclobutyl)-3,8-diazabicyclo[3.2.1]octan-8-yl)-5-(2-(((1R,5S,6r)-3,3-dioxido-3-thiabicyclo[3.1.0]hexan-6-yl)amino)pyrimidin-4-yl)thiazol-4-yl)-2-fluorophenyl)-2,6-difluorobenzenesulfonamide], for which the IC50 was determined as 0.15 µM.
In the case of `O=S1(=O)CC2(CC(Nc3nccc(-c4sc(C56CC(Cl)(C5)C6)nc4-c4cccc(NS(=O)(=O)c5c(F)cccc5C(F)(F)F)c4F)n3)C2)C1` [Example 150, N-(3-(2-(3-chlorobicyclo[1.1.1]pentan-1-yl)-5-(2-((2,2-dioxido-2-thiaspiro[3.3]heptan-6-yl)amino)pyrimidin-4-yl)thiazol-4-yl)-2-fluorophenyl)-2-fluoro-6-(trifluoromethyl)benzenesulfonamide], the IC50 came out at 0.17 µM.
As to `O=S1(=O)CC2(CC(Nc3nccc(-c4sc(N5C6CCC5CN(C5CC(F)(F)C5)C6)nc4-c4cccc(NS(=O)(=O)c5c(F)cccc5C(F)F)c4F)n3)C2)C1` [Example 50, N-(3-(2-(3-(3,3-difluorocyclobutyl)-3,8-diazabicyclo[3.2.1]octan-8-yl)-5-(2-((2,2-dioxido-2-thiaspiro[3.3]heptan-6-yl)amino)pyrimidin-4-yl)thiazol-4-yl)-2-fluorophenyl)-2-(difluoromethyl)-6-fluorobenzenesulfonamide], the IC50 was 0.19 µM.
Then `O=S1(=O)CC2(CC(Nc3nccc(-c4sc(N5C6CCC5CN(C5CCC(F)(F)CC5)C6)nc4-c4cccc(NS(=O)(=O)c5c(F)cccc5F)c4F)n3)C2)C1` [Example 147, N-(3-(2-(3-(4,4-difluorocyclohexyl)-3,8-diazabicyclo[3.2.1]octan-8-yl)-5-(2-((2,2-dioxido-2-thiaspiro[3.3]heptan-6-yl)amino)pyrimidin-4-yl)thiazol-4-yl)-2-fluorophenyl)-2,6-difluorobenzenesulfonamide], with 0.91 µM; and `C[C@@H]1CNC[C@@H](C)N1c1nc(-c2cccc(NS(=O)(=O)c3c(F)cccc3F)c2F)c(-c2ccnc(NC3CC4(C3)CS(=O)(=O)C4)n2)s1` [Example 59, N-(3-(2-((2R,6R)-2,6-dimethylpiperazin-1-yl)-5-(2-((2,2-dioxido-2-thiaspiro[3.3]heptan-6-yl)amino)pyrimidin-4-yl)thiazol-4-yl)-2-fluorophenyl)-2,6-difluorobenzenesulfonamide], with 3.01 µM; and `CS(=O)(=O)[C@H]1CC[C@H](Nc2nccc(-c3sc(C45CC(C(F)(F)F)(C4)C5)nc3-c3cccc(NS(=O)(=O)c4c(F)cccc4C(F)(F)F)c3F)n2)CC1` [Example 35, 2-fluoro-N-(2-fluoro-3-(5-(2-(((1r,4r)-4-(methylsulfonyl)-cyclohexyl)amino)pyrimidin-4-yl)-2-(3-(trifluoromethyl)-bicyclo[1.1.1]pentan-1-yl)thiazol-4-yl)phenyl)-6-(trifluoromethyl)-benzenesulfonamide], with 0.29 µM.
Then `O=S1(=O)C[C@@H]2[C@H](C1)[C@H]2Nc1nccc(-c2sc(C3(C(F)F)CC3)nc2-c2cccc(NS(=O)(=O)c3c(F)cccc3C(F)(F)F)c2F)n1` [Example 128, N-(3-(2-(1-(difluoromethyl)cyclopropyl)-5-(2-(((1R,5S,6r)-3,3-dioxido-3-thiabicyclo[3.1.0]hexan-6-yl)amino)pyrimidin-4-yl)thiazol-4-yl)-2-fluorophenyl)-2-fluoro-6-(trifluoromethyl)-benzenesulfonamide], with 0.05 µM.
